Here are results for 26 molecules from ChEMBL document CHEMBL4017512 (J Med Chem, 2017).

The subject of one assay is HCT-116. Briefly: Antiproliferative activity against human HCT116 cells after 72 hrs by phosphatase assay. It counts as functional, cell-based. The conditions noted are these: HCT-116, 72 h.
The next assay concerns L1210. Description: Antiproliferative activity against mouse L1210 cells after 72 hrs by phosphatase assay. The note with it: L1210, 72 h. It counts as functional, cell-based.
Assay [1] is described as follows: Cytotoxicity against human HCT116/VM46 cells assessed as reduction in cell viability after 72 hrs by phosphatase assay. The note with it: HCT-116/VM46, 72 h. The class given is cell-based.

On to `CC[C@]1(NC(=O)c2ccc(OC)c(F)c2)C[C@H]2CN(CCc3c([nH]c4ccccc34)[C@@](C(=O)OC)(c3cc4c(cc3OC)N(C)[C@H]3[C@@](O)(C(=O)OC)[C@H](OC(C)=O)[C@]5(CC)C=CCN6CC[C@]43[C@@H]65)C2)C1`, for which the IC50 in the assay with HCT-116 was determined as 0.6 nM; in the assay on L1210, 0.6 nM; in assay [1], 30 nM.
On to `CC[C@]1(NC(=O)c2ccc3sccc3c2)C[C@H]2CN(CCc3c([nH]c4ccccc34)[C@@](C(=O)OC)(c3cc4c(cc3OC)N(C)[C@H]3[C@@](O)(C(=O)OC)[C@H](OC(C)=O)[C@]5(CC)C=CCN6CC[C@]43[C@@H]65)C2)C1`, for which the 50% inhibitory concentration (IC50) was found to be 4.9 nM in the assay on HCT-116, 4.2 nM in the assay on L1210 and 16 nM in assay [1].
`CC[C@]1(NC(=O)c2ccc(Cl)cc2)C[C@H]2CN(CCc3c([nH]c4ccccc34)[C@@](C(=O)OC)(c3cc4c(cc3OC)N(C)[C@H]3[C@@](O)(C(=O)OC)[C@H](OC(C)=O)[C@]5(CC)C=CCN6CC[C@]43[C@@H]65)C2)C1`: the concentration for half-maximal inhibition (IC50) was 3.2 nM in the assay on HCT-116, 3.1 nM in the assay on L1210 and 50 nM in assay [1].
For `CC[C@]1(NC(=O)c2ccc(OC)c(Cl)c2)C[C@H]2CN(CCc3c([nH]c4ccccc34)[C@@](C(=O)OC)(c3cc4c(cc3OC)N(C)[C@H]3[C@@](O)(C(=O)OC)[C@H](OC(C)=O)[C@]5(CC)C=CCN6CC[C@]43[C@@H]65)C2)C1`, the half-maximal inhibitory concentration (IC50) in the assay on HCT-116 was 5.1 nM; with L1210, 3.7 nM; in assay [1], 8.9 nM.
The like results for `CC[C@]1(NC(=O)c2ccc3cc(N)ccc3c2)C[C@H]2CN(CCc3c([nH]c4ccccc34)[C@@](C(=O)OC)(c3cc4c(cc3OC)N(C)[C@H]3[C@@](O)(C(=O)OC)[C@H](OC(C)=O)[C@]5(CC)C=CCN6CC[C@]43[C@@H]65)C2)C1` were, in that order, 0.8 nM, 0.7 nM and 7.4 nM.
For the molecule `CCc1ccc(C(=O)N[C@@]2(CC)C[C@H]3CN(CCc4c([nH]c5ccccc45)[C@@](C(=O)OC)(c4cc5c(cc4OC)N(C)[C@H]4[C@@](O)(C(=O)OC)[C@H](OC(C)=O)[C@]6(CC)C=CCN7CC[C@]54[C@@H]76)C3)C2)cc1`, the values for the IC50 (in the assay on HCT-116; with L1210; in assay [1]) were 0.7 nM, 0.65 nM and 3.4 nM, respectively.
The like results for `CC[C@]1(NC(=O)c2ccccc2Cl)C[C@H]2CN(CCc3c([nH]c4ccccc34)[C@@](C(=O)OC)(c3cc4c(cc3OC)N(C)[C@H]3[C@@](O)(C(=O)OC)[C@H](OC(C)=O)[C@]5(CC)C=CCN6CC[C@]43[C@@H]65)C2)C1` were, in that order, 55 nM, 50 nM and 390 nM.
With `CC[C@]1(NC(=O)c2cnc3ccccc3c2)C[C@H]2CN(CCc3c([nH]c4ccccc34)[C@@](C(=O)OC)(c3cc4c(cc3OC)N(C)[C@H]3[C@@](O)(C(=O)OC)[C@H](OC(C)=O)[C@]5(CC)C=CCN6CC[C@]43[C@@H]65)C2)C1`, the 50% inhibitory concentration (IC50) in the assay with HCT-116 turned out to be 0.6 nM; in the assay on L1210, 0.7 nM; in assay [1], 5.7 nM.
Take `CC[C@]1(NC(=O)c2ccc(C3CCCCC3)cc2)C[C@H]2CN(CCc3c([nH]c4ccccc34)[C@@](C(=O)OC)(c3cc4c(cc3OC)N(C)[C@H]3[C@@](O)(C(=O)OC)[C@H](OC(C)=O)[C@]5(CC)C=CCN6CC[C@]43[C@@H]65)C2)C1`: the IC50 with HCT-116 was 30 nM; in the assay on L1210 it was 40 nM; in assay [1], 60 nM.
The like results for `CC[C@]1(NS(=O)(=O)c2ccc3ccccc3c2)C[C@H]2CN(CCc3c([nH]c4ccccc34)[C@@](C(=O)OC)(c3cc4c(cc3OC)N(C)[C@H]3[C@@](O)(C(=O)OC)[C@H](OC(C)=O)[C@]5(CC)C=CCN6CC[C@]43[C@@H]65)C2)C1` were, in that order, 60 nM, 50 nM and 440 nM.
`CC[C@]1(NC(=O)c2ccc(C)c(NC(=O)c3ccccc3)c2)C[C@H]2CN(CCc3c([nH]c4ccccc34)[C@@](C(=O)OC)(c3cc4c(cc3OC)N(C)[C@H]3[C@@](O)(C(=O)OC)[C@H](OC(C)=O)[C@]5(CC)C=CCN6CC[C@]43[C@@H]65)C2)C1`: the half-maximal inhibitory concentration (IC50) in the assay on HCT-116 stood at 7.6 nM; in the assay with L1210, 30 nM; in assay [1], 240 nM.
The like results for `CC[C@]1(NC(=O)c2cocn2)C[C@H]2CN(CCc3c([nH]c4ccccc34)[C@@](C(=O)OC)(c3cc4c(cc3OC)N(C)[C@H]3[C@@](O)(C(=O)OC)[C@H](OC(C)=O)[C@]5(CC)C=CCN6CC[C@]43[C@@H]65)C2)C1` were, in that order, 4 nM, 4.5 nM and 90 nM.
The like results for `CC[C@]1(NC(=O)c2cc3ccccc3o2)C[C@H]2CN(CCc3c([nH]c4ccccc34)[C@@](C(=O)OC)(c3cc4c(cc3OC)N(C)[C@H]3[C@@](O)(C(=O)OC)[C@H](OC(C)=O)[C@]5(CC)C=CCN6CC[C@]43[C@@H]65)C2)C1` were, in that order, 1.1 nM, 1.8 nM and 15 nM.
In the case of `CC[C@]1(NC(=O)c2ccc3nccnc3c2)C[C@H]2CN(CCc3c([nH]c4ccccc34)[C@@](C(=O)OC)(c3cc4c(cc3OC)N(C)[C@H]3[C@@](O)(C(=O)OC)[C@H](OC(C)=O)[C@]5(CC)C=CCN6CC[C@]43[C@@H]65)C2)C1`, the half-inhibitory concentration (IC50) in the assay on HCT-116 was found to be 0.6 nM; in the assay with L1210, 0.6 nM; in assay [1], 7.5 nM.
`CCOc1ccc(C(=O)N[C@@]2(CC)C[C@H]3CN(CCc4c([nH]c5ccccc45)[C@@](C(=O)OC)(c4cc5c(cc4OC)N(C)[C@H]4[C@@](O)(C(=O)OC)[C@H](OC(C)=O)[C@]6(CC)C=CCN7CC[C@]54[C@@H]76)C3)C2)cc1Br`: the IC50 in the assay with HCT-116 amounted to 6.2 nM; in the assay on L1210, 3.9 nM; in assay [1], 50 nM.
`CC[C@]1(NC(=O)c2cccc(OC(F)(F)F)c2)C[C@H]2CN(CCc3c([nH]c4ccccc34)[C@@](C(=O)OC)(c3cc4c(cc3OC)N(C)[C@H]3[C@@](O)(C(=O)OC)[C@H](OC(C)=O)[C@]5(CC)C=CCN6CC[C@]43[C@@H]65)C2)C1`: the values for the IC50 (in the assay on HCT-116; in the assay with L1210; in assay [1]) were 5.9 nM, 4.8 nM and 50 nM, respectively.
The like results for `CC[C@]1(NC(=O)c2csc3ccccc23)C[C@H]2CN(CCc3c([nH]c4ccccc34)[C@@](C(=O)OC)(c3cc4c(cc3OC)N(C)[C@H]3[C@@](O)(C(=O)OC)[C@H](OC(C)=O)[C@]5(CC)C=CCN6CC[C@]43[C@@H]65)C2)C1` were, in that order, 5.7 nM, 5.2 nM and 20 nM.
The like results for `CC[C@]1(NC(=O)c2ccccn2)C[C@H]2CN(CCc3c([nH]c4ccccc34)[C@@](C(=O)OC)(c3cc4c(cc3OC)N(C)[C@H]3[C@@](O)(C(=O)OC)[C@H](OC(C)=O)[C@]5(CC)C=CCN6CC[C@]43[C@@H]65)C2)C1` were, in that order, 50 nM, 55 nM and 460 nM.
On to `CC[C@]1(NC(=O)c2ccc3c(c2)OCCN3C)C[C@H]2CN(CCc3c([nH]c4ccccc34)[C@@](C(=O)OC)(c3cc4c(cc3OC)N(C)[C@H]3[C@@](O)(C(=O)OC)[C@H](OC(C)=O)[C@]5(CC)C=CCN6CC[C@]43[C@@H]65)C2)C1`, for which the figures for the IC50 (with HCT-116; in the assay with L1210; in assay [1]) were 0.3 nM, 0.3 nM and 4.9 nM, respectively.
In the case of `CC[C@]1(NC(=O)c2cccc(S(=O)(=O)F)c2)C[C@H]2CN(CCc3c([nH]c4ccccc34)[C@@](C(=O)OC)(c3cc4c(cc3OC)N(C)[C@H]3[C@@](O)(C(=O)OC)[C@H](OC(C)=O)[C@]5(CC)C=CCN6CC[C@]43[C@@H]65)C2)C1`, the results for the 50% inhibitory concentration (IC50) (in the assay with HCT-116; with L1210; in assay [1]) were 30 nM, 40 nM and 570 nM, respectively.
The like results for `CC[C@]1(NC(=O)c2ccc(Br)cc2)C[C@H]2CN(CCc3c([nH]c4ccccc34)[C@@](C(=O)OC)(c3cc4c(cc3OC)N(C)[C@H]3[C@@](O)(C(=O)OC)[C@H](OC(C)=O)[C@]5(CC)C=CCN6CC[C@]43[C@@H]65)C2)C1` were, in that order, 1.4 nM, 2.7 nM and 10 nM.
As to `CC[C@]1(NC(=O)c2ccc(OC(F)(F)F)cc2)C[C@H]2CN(CCc3c([nH]c4ccccc34)[C@@](C(=O)OC)(c3cc4c(cc3OC)N(C)[C@H]3[C@@](O)(C(=O)OC)[C@H](OC(C)=O)[C@]5(CC)C=CCN6CC[C@]43[C@@H]65)C2)C1`, the concentration for half-maximal inhibition (IC50) with HCT-116 is 4.4 nM; in the assay with L1210, 5.9 nM; in assay [1], 8.4 nM.
As to `CC[C@]1(NC(=O)c2ccc(CNC(=O)OC(C)(C)C)cc2)C[C@H]2CN(CCc3c([nH]c4ccccc34)[C@@](C(=O)OC)(c3cc4c(cc3OC)N(C)[C@H]3[C@@](O)(C(=O)OC)[C@H](OC(C)=O)[C@]5(CC)C=CCN6CC[C@]43[C@@H]65)C2)C1`, the IC50 in the assay with HCT-116 was found to be 0.7 nM; with L1210, 0.76 nM; in assay [1] it was 50 nM.
Taken in the same sequence, the figures for `CC[C@]1(NC(=O)c2ccncc2)C[C@H]2CN(CCc3c([nH]c4ccccc34)[C@@](C(=O)OC)(c3cc4c(cc3OC)N(C)[C@H]3[C@@](O)(C(=O)OC)[C@H](OC(C)=O)[C@]5(CC)C=CCN6CC[C@]43[C@@H]65)C2)C1` were 0.4 nM, 0.4 nM and 55 nM.
Taken in the same sequence, the figures for `CC[C@]1(NS(=O)(=O)c2cccc([N+](=O)[O-])c2)C[C@H]2CN(CCc3c([nH]c4ccccc34)[C@@](C(=O)OC)(c3cc4c(cc3OC)N(C)[C@H]3[C@@](O)(C(=O)OC)[C@H](OC(C)=O)[C@]5(CC)C=CCN6CC[C@]43[C@@H]65)C2)C1` were 490 nM, 450 nM and 430 nM.
Take `C=CC(=O)N[C@@]1(CC)C[C@H]2CN(CCc3c([nH]c4ccccc34)[C@@](C(=O)OC)(c3cc4c(cc3OC)N(C)[C@H]3[C@@](O)(C(=O)OC)[C@H](OC(C)=O)[C@]5(CC)C=CCN6CC[C@]43[C@@H]65)C2)C1`: the concentration for half-maximal inhibition (IC50) came out at 6 nM with HCT-116, 7 nM in the assay with L1210 and 520 nM in assay [1].
